Measured values taken from US20260151406A1, “COMPOSITION FOR PREVENTING OR TREATING PERIODONTITIS COMPRISING CANNABIDIOL AND TAURINE” (MBP CO., LTD., priority 2022, published 2026).

Assays:
Type in all cases: cell-based
[1] = system: TRAP-positive cell formation in macrophages; assay: Inhibition of TRAP-positive cell formation by RANKL during osteoclast differentiation; details: osteoclast differentiation (FIG. 3)
Protocol: (§1) To confirm the inhibitory effect of CBD and taurine on bone loss caused by periodontitis, the degree of TRAP formation and bone loss by RANKL (receptor activator of nuclear factor-KB ligand) was analyzed through pit formation area analysis.
As a result of analyzing the degree of inhibition of TRAP-positive cell formation by RANKL during osteoclast differentiation, it was confirmed that the inhibition efficacy of TRAP-positive cell formation was very low when CBD or taurine was used alone, but the inhibition efficacy of TRAP-positive cell formation was very high when CBD and taurine were used in combination (FIG. 3).

[2] = system: bone loss by RANKL in macrophages; assay: Inhibition of bone loss by RANKL in macrophages (pit formation area analysis); details: pit formation area (FIG. 4)
Protocol: as §1
To further confirm the bone loss inhibition efficacy of CBD and taurine, the degree of inhibition of bone loss by RANKL in macrophages was analyzed.

Raw264.7 cells = assay: Evaluation of cytotoxicity (intracellular toxicity); details: CBD alone (FIG. 1)
Protocol: For CBD and taurine, intracellular toxicity evaluation was performed on osteoclasts (Raw264.7 cells), which are inflammatory cells, and the results are shown in FIG. 1. […] The appropriate concentrations of CBD (10 uM) and Taurine (0.5 mM) were determined, and intracellular toxicity evaluation according to subsequent combined treatment was performed.

NCCS(=O)(=O)O [taurine]
inhibition efficacy of TRAP-positive cell formation [1]: very low | bone loss inhibition efficacy [2]: almost none or very low

C=C(C)[C@@H]1CCC(C)=C[C@H]1c1c(O)cc(CCCCC)cc1O [CBD, Cannabidiol]
concentration up to which there was no intracellular toxicity (Raw264.7 cells): ≤ 12 µM | inhibition efficacy of TRAP-positive cell formation [1]: very low | bone loss inhibition efficacy [2]: almost none or very low
